A short description of assay [1]: Inhibition of TNF-alpha-induced NFkappaB nuclear translocation in human A549 cells preincubated for 30 mins before TNFalpha challenge and measured 30 post TNFalpha challenge by fluorescence method. In kind it is cell-based.
For another assay, the system named is A549. In words: Growth inhibition of human A549 cells after 48 hrs by sulforhodamine B assay. The assay is classed as functional. The following applies: A549, 48 h.

The structures appear in SMILES notation.

Consider `COc1ccc(/C=C/C(=O)/C=C(O)/C=C/c2ccc(OC)c(OC)c2)cc1OC` [DIMETHYLCURCUMIN], for which the half-inhibitory concentration (IC50) in assay [1] was > 40000 nM. Besides, the GI50 in the assay with A549 worked out at 5800 nM.
The matching figures for `COc1ccc(/C=C/C(=O)C(=Cc2cc(OC)c(OC)c(OC)c2)C(=O)/C=C/c2ccc(OC)cc2)cc1`: 3800 nM and 1120 nM.
Compound `COc1ccc(C=C(C(=O)/C=C/c2ccc(OC)c(OC)c2)C(=O)/C=C/c2ccc(OC)c(OC)c2)c(OC)c1` had an IC50 in assay [1] of 1700 nM. For the same compound, in the assay on A549, the 50% growth inhibitory concentration (GI50) turned out to be 650 nM.
In assay [1], `COc1ccc(OC)c(C=C(C(=O)/C=C/c2ccc(O)c(OC)c2)C(=O)/C=C/c2ccc(O)c(OC)c2)c1` gave an IC50 of 1400 nM. This compound showed a GI50 in the assay on A549 of 670 nM.
The matching figures for `COc1ccc(/C=C/C(=O)C(=CO)C(=O)/C=C/c2ccc(OC)cc2)cc1`: > 40000 nM and > 25000 nM.
On to `COc1ccc(/C=C/C(=O)C(=Cc2cc(OC)c(OC)c(OC)c2)C(=O)/C=C/c2ccc(OC)c(OC)c2)cc1OC`, for which inhibition in assay [1] was half-maximal at 1800 nM (IC50). This compound returned a GI50 with A549 of 230 nM.
In the case of `COc1ccc(/C=C/C(=O)/C=C(O)/C=C/c2ccc(OC)cc2)cc1`, the IC50 in assay [1] was > 40000 nM. Further, the 50% growth inhibitory concentration (GI50) in the assay on A549 was > 25000 nM.
In the case of `COc1ccc(C=C(C(=O)/C=C/c2ccc(OC)c(OC)c2)C(=O)/C=C/c2ccc(OC)c(OC)c2)cc1OC`, the concentration for half-maximal inhibition (IC50) in assay [1] was 1500 nM. Also, the GI50 in the assay on A549 was 310 nM.
On to `COc1cc(C=C(C(=O)/C=C/c2ccc(O)c(OC)c2)C(=O)/C=C/c2ccc(O)c(OC)c2)ccc1O`, for which 1000 nM corresponded to half-maximal inhibition in assay [1] (IC50). Besides, halving of growth in the assay on A549 (GI50) required 2000 nM.
In turn, `COc1ccc(/C=C/C(=O)C(=Cc2ccc(O)c(OC)c2)C(=O)/C=C/c2ccc(OC)cc2)cc1` gave an IC50 in assay [1] of 3000 nM. The concentration for 50% growth inhibition (GI50) in the assay with A549 is 1640 nM.
Taken in the same sequence, the figures for `COc1cc(/C=C/C(=O)C(=CO)C(=O)/C=C/c2ccc(OC(C)=O)c(OC)c2)ccc1OC(C)=O` were 39300 nM and > 25000 nM.
On to `COc1ccc(/C=C/C(=O)C(=Cc2ccc(N(C)C)cc2)C(=O)/C=C/c2ccc(OC)c(OC)c2)cc1OC`, for which the 50% inhibitory concentration (IC50) in assay [1] is > 40000 nM. Besides, the GI50 with A549 is 2620 nM.
The compound `Cc1ccc(/C=C/C(=O)/C=C(O)/C=C/c2ccc(C)o2)o1` displayed an IC50 in assay [1] of 8500 nM. The GI50 with A549 was > 25000 nM.
The matching figures for `CCc1ccc(C=C(C(=O)/C=C/c2ccc(O)c(OC)c2)C(=O)/C=C/c2ccc(O)c(OC)c2)cc1`: 1800 nM and 550 nM.
`COc1ccc(/C=C/C(=O)C(=Cc2ccc(O)cc2)C(=O)/C=C/c2ccc(OC)c(OC)c2)cc1OC` came in with a half-inhibitory concentration (IC50) in assay [1] of 1400 nM. This compound registered a GI50 in the assay on A549 of 420 nM.
Compound `COc1ccc(OC)c(C=C(C(=O)/C=C/c2ccc(OC)c(OC)c2)C(=O)/C=C/c2ccc(OC)c(OC)c2)c1` displayed an IC50 in assay [1] of 1500 nM. Moreover, growth in the assay on A549 was halved (GI50) at 530 nM.
`COc1cc(/C=C/C(=O)/C(=C/c2cc(OC)c(OC)c(OC)c2)C(C)=O)cc(OC)c1OC` came in with a half-inhibitory concentration (IC50) in assay [1] of 4800 nM. Moreover, the concentration for 50% growth inhibition (GI50) with A549 is 530 nM.
`COc1cc(/C=C/C(=O)C(=Cc2ccc(OC)c(OC)c2)C(=O)/C=C/c2ccc(O)c(OC)c2)ccc1O`: in assay [1], the concentration for half-maximal inhibition (IC50) is > 40000 nM. Also, in the assay on A549, the GI50 was 430 nM.
Turning to `COc1ccc(/C=C/C(=O)C(=CO)C(=O)/C=C/c2ccc(OC)c(OC)c2)cc1OC`, the IC50 in assay [1] is > 40000 nM. In the assay with A549, the GI50 was > 25000 nM.
For `CCc1ccc(C=C(C(=O)/C=C/c2ccc(OC)c(OC)c2)C(=O)/C=C/c2ccc(OC)c(OC)c2)cc1`, the IC50 in assay [1] is 4900 nM. The compound further yielded a GI50 in the assay on A549 of 630 nM.
On to `COc1cc(/C=C/C(=O)/C=C/c2cc(OC)c(OC)c(OC)c2)cc(OC)c1OC`, for which the midpoint of inhibition in assay [1], the IC50, lay at 7900 nM. Further, in the assay with A549, the 50% growth inhibitory concentration (GI50) was found to be 550 nM.
`COc1cc(/C=C/C(=O)C(=Cc2cccc(F)c2)C(=O)/C=C/c2ccc(O)c(OC)c2)ccc1O` showed an IC50 in assay [1] of 1400 nM. In addition, in the assay on A549, the GI50 turned out to be 360 nM.
The matching figures for `COc1ccc(/C=C/C(=O)C(=Cc2ccc(OC)c(OC)c2)C(=O)/C=C/c2ccc(OC)cc2)cc1`: 3300 nM and 930 nM.
Take `COc1ccc(/C=C/C(=O)/C=C/c2cc(OC)c(OC)c(OC)c2)cc1OC`: half-maximal inhibition in assay [1] (IC50) required 9000 nM. This compound displayed a concentration for 50% growth inhibition (GI50) in the assay with A549 of 1210 nM.
`COc1ccc(C=C(C(=O)/C=C/c2cc(OC)c(OC)c(OC)c2)C(=O)/C=C/c2cc(OC)c(OC)c(OC)c2)cc1OC` displayed an IC50 in assay [1] of 1000 nM. Also, it took 370 nM to inhibit growth in the assay on A549 by half (GI50).
For the compound `COc1ccc(/C=C/C(=O)C(=Cc2cccc(OC)c2OC)C(=O)/C=C/c2ccc(OC)c(OC)c2)cc1OC`, in assay [1], the concentration for half-maximal inhibition (IC50) worked out at 1500 nM. This compound also registered a GI50 in the assay with A549 of 670 nM.
For `O=C(/C=C(O)/C=C/c1ccco1)/C=C/c1ccco1`, the IC50 in assay [1] was > 40000 nM. Further, the GI50 in the assay on A549 was > 25000 nM.
In turn, `COc1ccc(/C=C/C(=O)C(=Cc2ccc(C)o2)C(=O)/C=C/c2ccc(OC)c(OC)c2)cc1OC` registered an IC50 in assay [1] of 2800 nM. Besides, the concentration for 50% growth inhibition (GI50) with A549 is 1310 nM.
Taken in the same sequence, the figures for `COc1cc(/C=C/C(=O)/C=C/c2sccc2C)cc(OC)c1OC` were 24300 nM and 9310 nM.
In assay [1], `COc1ccc(/C=C/C(=O)C(=Cc2cccc(F)c2)C(=O)/C=C/c2ccc(OC)c(OC)c2)cc1OC` displayed a half-maximal inhibitory concentration (IC50) of 1300 nM. This compound came in with a GI50 in the assay with A549 of 580 nM.
As for `COc1ccc(C=C(C(=O)/C=C/c2ccc(O)c(OC)c2)C(=O)/C=C/c2ccc(O)c(OC)c2)c(OC)c1`, in assay [1], the concentration for half-maximal inhibition (IC50) worked out at 1000 nM. Besides, the GI50 in the assay with A549 is 690 nM.
The matching figures for `COc1cccc(C=C(C(=O)/C=C/c2ccc(O)c(OC)c2)C(=O)/C=C/c2ccc(O)c(OC)c2)c1`: 1300 nM and 640 nM.
For `COc1cc(/C=C/C(=O)C(=Cc2ccc(F)cc2)C(=O)/C=C/c2ccc(O)c(OC)c2)ccc1O`, the IC50 in assay [1] came out at 2700 nM. Besides, the 50% growth inhibitory concentration (GI50) in the assay on A549 is 780 nM.
